Literature values in patent publication US8524751B2, “4-oxadiazol-2-YL-indazoles as inhibitors of P13 kinases” (priority 2009, dated 2013).
Read-outs that look alike come from different tables or passages of the source.

Experiments:
Class I PI3-kinases = conditions: each of the Class I PI3-kinases

SMILES | IC50 (Class I PI3-kinases; Fruman et al. 1998, read-out: IC50 values against each of these PI3-kinases) | IC50 (CK2 protein kinase) | IC50 (Class I PI3-kinases; read-out: IC50 values against each of the various Class I PI3-kinases)
O=c1cc(N2CCOCC2)oc2c(-c3ccccc3)cccc12 [LY294002] | 15 to 20 µM | 5 to 10 µM | –
COC[C@H]1OC(=O)c2coc3c2[C@@]1(C)C1=C(C3=O)[C@@H]2CCC(=O)[C@@]2(C)C[C@H]1OC(C)=O [wortmannin] | – | – | 0.001 to 0.01 µM
